Our source for the EC50 values is US20150274664A1 (MERCK SHARP & DOHME CORP., priority 2012, published 2015).

A word on the EC50: it is the concentration that produces a half-maximal response. Read a low EC50 as a more potent agent.

Each structure is given as a SMILES string.

The assay deals with T1, human GPR119 (Homo sapiens, UniProt Q8TDV5).
T1 construct: expressed in transfected cells; host or cells: HEK293
T1 sequence (Q8TDV5 1-335): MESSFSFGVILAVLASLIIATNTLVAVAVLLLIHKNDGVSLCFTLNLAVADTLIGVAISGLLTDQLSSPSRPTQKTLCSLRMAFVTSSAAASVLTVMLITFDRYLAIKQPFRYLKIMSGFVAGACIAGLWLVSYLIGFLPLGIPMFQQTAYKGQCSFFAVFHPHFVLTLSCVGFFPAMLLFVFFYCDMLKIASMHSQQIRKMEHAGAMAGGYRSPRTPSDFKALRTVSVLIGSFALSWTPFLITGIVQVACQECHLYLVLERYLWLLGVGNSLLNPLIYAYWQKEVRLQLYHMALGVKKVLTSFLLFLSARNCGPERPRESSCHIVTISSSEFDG
Nature of the assay: Measurement of GPR119 signaling using LANCE 384-well cAMP kit (LCMP assay). The class given is cell-based. To be noted: HEK293 cells stably transfected with human GPR119. The protocol:
Measurement of GPR119 Signaling Using LANCE 384-Well cAMP Kit (LCMP Assay)
Human embryonic kidney (HEK) 293 cell lines stably transfected with human GPR119 were maintained in DMEM media containing FBS, penicillin-streptomycin, HEPES, and hygromycin. For the cAMP assay, the transfected cells were harvested using a non-enzymatic cell dissociation solution (GIBCO 2672), pelleted and resuspended in stimulation buffer (DMEM, 25 mM Hepes, 0.1% BSA, pH 7.4 in the presence of 100 μM phosphodiesterase inhibitors). The adenylate cyclase assay was constructed following the LANCE™ cAMP Kit (Perkin Elmer, AD0264) instructions. Briefly, cells with Alexa Fluor® 647-anti cAMP antibody were incubated with 10 point series diluted test article in stimulation buffer with a final concentration of 2.5% DMSO for 45 minutes. The reaction was stopped by incubating with the supplied detection buffer containing the europium chelate of the Eu-SA/Biotin-cAMP tracer for 3 hours. The assay was performed in duplicate in a 384 well plate for duplicate plates. Fluorescence at 665 nm was measured using a PHERAstar instrument. Basal activity was determined using a DMSO control and maximum response was defined as cAMP stimulation produced by an internal agonist control. Standard cAMP concentrations were assayed concurrently for conversion of fluorescence signal to cAMP level. The data was analyzed using 4-parameter curve fit in Microsoft Excel.
For orientation: TR-FRET usually uses a lanthanide donor and a delayed reading to cut background.
`CC1(OC(=O)N2CCC([C@H]3C[C@@H]3CCOc3ccc(-n4cnnn4)cc3F)CC2)CC1` [Example 107, 1-methylcyclopropyl 4-((1R,2R)-2-(2-(2-fluoro-4-(1H-tetrazol-1-yl)phenoxy)ethyl)cyclopropyl)piperidine-1-carboxylate] gave an EC50 of 17 nM.

`CCc1cnc(N2CCC([C@H]3C[C@@H]3CCOc3cc(F)cc(F)c3CC(=O)N3CCC3)CC2)nc1` [Example 119, 1-(azetidin-1-yl)-2-(2-(2-((1R,2R)-2-(1-(5-ethylpyrimidin-2-yl)piperidin-4-yl)cyclopropyl)ethoxy)-4,6-difluorophenyl)ethanone] came in with an EC50 of 17 nM.

Compound `CCc1cnc(N2CCC([C@@H]3C[C@H]3CCOc3ccc(S(C)(=O)=O)c(F)c3)CC2)nc1` [Example 31, 5-ethyl-2-(4-((1S,2S)-2-(2-(3-fluoro-4-(methylsulfonyl)phenoxy)ethyl)cyclopropyl)piperidin-1-yl)pyrimidine] gave an EC50 of 16 nM.

On to `CCS(=O)(=O)c1ccc(OCC[C@H]2C[C@@H]2C2CCN(c3nc(C(C)C)no3)CC2)c(F)c1` [Example 92, 5-(4-((1R,2R)-2-(2-(4-(ethylsulfonyl)-2-fluorophenoxy)ethyl)cyclopropyl)piperidin-1-yl)-3-isopropyl-1,2,4-oxadiazole], for which the EC50 turned out to be 13 nM.

Compound `CCc1cnc(N2CCC([C@H]3C[C@@H]3CCNc3ncc(-n4cnnn4)cn3)CC2)nc1` [Example 125, N-(2-((1R,2S)-2-(1-(5-ethylpyrimidin-2-yl)piperidin-4-yl)cyclopropyl)ethyl)-5-(1H-tetrazol-1-yl)pyrimidin-2-amine] had an EC50 of 18 nM.

`CC(C)c1noc(N2CCC([C@H]3C[C@@H]3CCOc3ccc(CC(=O)N4CCC4)cc3F)CC2)n1` [Example 74, 1-(azetidin-1-yl)-2-(3-fluoro-4-(2-((1R,2R)-2-(1-(3-isopropyl-1,2,4-oxadiazol-5-yl)piperidin-4-yl)cyclopropyl)ethoxy)phenyl)ethanone] came in with an EC50 of 9.5 nM.

As for `COCc1noc(N2CCC([C@@H]3C[C@H]3CCOc3cc(F)c(CC(=O)N(C)C)c(F)c3)CC2)n1` [Example 78, 2-(2,6-difluoro-4-(2-((1S,2S)-2-(1-(3-(methoxymethyl)-1,2,4-oxadiazol-5-yl)piperidin-4-yl)cyclopropyl)ethoxy)phenyl)-N,N-dimethylacetamide], the EC50 came out at 6.7 nM.

The compound `CC1(OC(=O)N2CCC([C@@H]3C[C@H]3CCOc3cc(F)c(CC(=O)N4CCC4)c(F)c3)CC2)CC1` [Example 101, 1-methylcyclopropyl 4-((1S,2S)-2-(2-(4-(2-(azetidin-1-yl)-2-oxoethyl)-3,5-difluorophenoxy)ethyl)cyclopropyl)piperidine-1-carboxylate] had an EC50 of 2 nM.

Take `CCc1cnc(N2CCC([C@H]3C[C@@H]3COCc3ccc(S(=O)(=O)CC)cc3)CC2)nc1` [Example 9, 5-ethyl-2-(4-((1R,2S)-2-(((4-(ethylsulfonyl)benzyl)oxy)methyl)cyclopropyl)piperidin-1-yl)pyrimidine]: a half-maximal effect (EC50) was put at 22 nM.

In turn, `O=C(Cc1ccc(OCC[C@@H]2C[C@H]2C2CCN(c3ncc(Cl)cn3)CC2)cc1F)N1CCC1` [Example 42, 1-(azetidin-1-yl)-2-(4-(2-((1S,2S)-2-(1-(5-chloropyrimidin-2-yl)piperidin-4-yl)cyclopropyl)ethoxy)-2-fluorophenyl)ethanone] displayed an EC50 of 1.8 nM.

As for `CCc1cnc(N2CCC([C@@H]3C[C@H]3CCOc3ccc(S(=O)(=O)CC)cc3F)CC2)nc1` [Example 32, 5-ethyl-2-(4-((1S,2S)-2-(2-(4-(ethylsulfonyl)-2-fluorophenoxy)ethyl)cyclopropyl)piperidin-1-yl)pyrimidine], the EC50 came to 18 nM.

Compound `CC1(OC(=O)N2CCC([C@H]3C[C@@H]3CCOc3ccc(-n4cnnn4)c(F)c3)CC2)CC1` [Example 106, 1-methylcyclopropyl 4-((1R,2R)-2-(2-(3-fluoro-4-(1H-tetrazol-1-yl)phenoxy)ethyl)cyclopropyl)piperidine-1-carboxylate] yielded an EC50 of 14 nM.

For `CS(=O)(=O)c1ccc(OCC[C@@H]2C[C@H]2C2CCN(c3ncc(Cl)cn3)CC2)cc1F` [Example 24, 5-chloro-2-(4-((1S,2S)-2-(2-(3-fluoro-4-(methylsulfonyl)phenoxy)ethyl)cyclopropyl)piperidin-1-yl)pyrimidine], the EC50 amounted to 8.3 nM.

Compound `CC(C)c1noc(N2CCC([C@@H]3C[C@H]3CCOc3cc(F)c(CC(=O)N4CCC4)c(F)c3)CC2)n1` [Example 82, 1-(azetidin-1-yl)-2-(2,6-difluoro-4-(2-((1S,2S)-2-(1-(3-isopropyl-1,2,4-oxadiazol-5-yl)piperidin-4-yl)cyclopropyl)ethoxy)phenyl)ethanone] registered an EC50 of 0.51 nM.

As to `CCc1cnc(N2CCC([C@H]3C[C@@H]3CCOc3ccc(-n4cnnn4)c(F)c3)CC2)nc1` [Example 38, 5-ethyl-2-(4-((1R,2R)-2-(2-(3-fluoro-4-(1H-tetrazol-1-yl)phenoxy)ethyl)cyclopropyl)piperidin-1-yl)pyrimidine], the EC50 turned out to be 5.3 nM.

As to `CC1(OC(=O)N2CCC([C@H]3C[C@@H]3CCOc3ccc(CC(=O)N4CCC4)c(F)c3)CC2)CC1` [Example 95, 1-methylcyclopropyl 4-((1R,2R)-2-(2-(4-(2-(azetidin-1-yl)-2-oxoethyl)-3-fluorophenoxy)ethyl)cyclopropyl)piperidine-1-carboxylate], a half-maximal effect (EC50) was put at 2.6 nM.

Turning to `CN(C)C(=O)Cc1ccc(OCC[C@H]2C[C@@H]2C2CCN(C(=O)OC3(C)CC3)CC2)cc1F` [Example 100, 1-methylcyclopropyl 4-((1R,2R)-2-(2-(4-(2-(dimethylamino)-2-oxoethyl)-3-fluorophenoxy)ethyl)cyclopropyl)piperidine-1-carboxylate], a half-maximal effect (EC50) was put at 5.5 nM.

As to `Fc1cc(OCC[C@@H]2C[C@H]2C2CCN(c3ncc(Cl)cn3)CC2)ccc1-n1cnnn1` [Example 59, 5-chloro-2-(4-((1S,2S)-2-(2-(3-fluoro-4-(1H-tetrazol-1-yl)phenoxy)ethyl)cyclopropyl)piperidin-1-yl)pyrimidine], the response was half-maximal at 13 nM (EC50).

As to `CC(C)c1noc(N2CCC([C@@H]3C[C@H]3CCOc3ccc(CC(=O)N(C)C)c(F)c3)CC2)n1` [Example 76, 2-(2-fluoro-4-(2-((1S,2S)-2-(1-(3-isopropyl-1,2,4-oxadiazol-5-yl)piperidin-4-yl)cyclopropyl)ethoxy)phenyl)-N,N-dimethylacetamide], the EC50 is 6.3 nM.

`Fc1cc(OCC[C@H]2C[C@@H]2C2CCN(c3ncc(Cl)cn3)CC2)ccc1-n1cnnn1` [Example 37, 5-chloro-2-(4-((1R,2R)-2-(2-(3-fluoro-4-(1H-tetrazol-1-yl)phenoxy)ethyl)cyclopropyl)piperidin-1-yl)pyrimidine] displayed a 50% effective concentration (EC50) of 6.8 nM.

With `CC(C)c1noc(N2CCC([C@@H]3C[C@H]3CCOc3ccc(CC(=O)N4CCC4)c(F)c3)CC2)n1` [Example 69, 1-(azetidin-1-yl)-2-(2-fluoro-4-(2-((1S,2S)-2-(1-(3-isopropyl-1,2,4-oxadiazol-5-yl)piperidin-4-yl)cyclopropyl)ethoxy)phenyl)ethanone], a half-maximal effect (EC50) was put at 2.2 nM.

For the compound `CCc1cnc(N2CCC([C@@H]3C[C@H]3CCOc3ccc(S(C)(=O)=O)cc3F)CC2)nc1` [Example 26, 5-ethyl-2-(4-((1S,2S)-2-(2-(2-fluoro-4-(methylsulfonyl)phenoxy)ethyl)cyclopropyl)piperidin-1-yl)pyrimidine], the EC50 came to 9.4 nM.

Compound `CC(C)c1noc(N2CCC([C@H]3C[C@@H]3CCOc3ccc(-n4cnnn4)c(F)c3)CC2)n1` [Example 86, 5-(4-((1R,2R)-2-(2-(3-fluoro-4-(1H-tetrazol-1-yl)phenoxy)ethyl)cyclopropyl)piperidin-1-yl)-3-isopropyl-1,2,4-oxadiazole] yielded an EC50 of 13 nM.

Turning to `CC(C)c1noc(N2CCC([C@H]3C[C@@H]3CCOc3ccc(S(C)(=O)=O)c(F)c3)CC2)n1` [Example 87, 5-(4-((1R,2R)-2-(2-(3-fluoro-4-(methylsulfonyl)phenoxy)ethyl)cyclopropyl)piperidin-1-yl)-3-isopropyl-1,2,4-oxadiazole], the EC50 is 11 nM.

With `CS(=O)(=O)c1ccc(OCC[C@H]2C[C@@H]2C2CCN(c3ncc(Cl)cn3)CC2)nc1` [Example 109, 5-chloro-2-(4-((1R,2R)-2-(2-(5-(methylsulfonyl)pyridin-2-yloxy)ethyl)cyclopropyl)piperidin-1-yl)pyrimidine], the EC50 is 22 nM.

The compound `COCc1cnc(N2CCC([C@H]3C[C@@H]3COCc3ccc(S(C)(=O)=O)cc3)CC2)nc1` [Example 12, 5-(methoxymethyl)-2-(4-((1R,2S)-2-(((4-(methylsulfonyl)benzyl)oxy)methyl)cyclopropyl)piperidin-1-yl)pyrimidine] registered an EC50 of 14 nM.
